Laboratory results published in ChEMBL document CHEMBL1201861, “Genomics of Drug Sensitity in Cancer screening data, Wellcome Trust Sanger Institute”.

Tests used:
Assay in all cases: cells
Format in all cases: functional, cell-based, Homo sapiens
ChaGo-K-1 = system: ChaGo-K-1;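 also: growth inhibition of ChaGo-K-1 cells, read out with a cell viability assay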
Description: SANGER: Inhibition of human ChaGo-K-1 cell growth in a cell viability assay.

DMS-273 = system: DMS-273
Description: SANGER: Inhibition of human DMS-273 cell growth in a cell viability assay.

HCC1569 = system: HCC1569;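 also: growth inhibition of human HCC1569 cells, read out with a cell viability assay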
Description: SANGER: Inhibition of human HCC1569 cell growth in a cell viability assay.

NCI-H630 = system: NCI-H630;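 also: growth inhibition of NCI-H630 cells, read out with a cell viability assay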
Description: SANGER: Inhibition of human NCI-H630 cell growth in a cell viability assay.

CWR22R = system: CWR22R;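 also: growth inhibition of 22Rv1 cells, read out with a cell viability assay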
Description: SANGER: Inhibition of human 22RV1 cell growth in a cell viability assay.

Panc1005 = system: Panc1005;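 also: growth inhibition of human PANC-10-05 cells, measured by a cell viability assay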
Description: SANGER: Inhibition of human PANC-10-05 cell growth in a cell viability assay.

SW1417 = system: SW1417;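 also: growth inhibition of human SW1417 cells, read out with a cell viability assay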
Description: SANGER: Inhibition of human SW1417 cell growth in a cell viability assay.

MDA-MB-175-VII = system: MDA-MB-175-VII
NCI-H520 = system: NCI-H520;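 also: growth inhibition of NCI-H520 cells, measured by a cell viability assay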
Description: SANGER: Inhibition of human NCI-H520 cell growth in a cell viability assay.

HCT-116 = system: HCT-116
Description: SANGER: Inhibition of human HCT-116 cell growth in a cell viability assay.

MKN-1 = system: MKN-1;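 also: growth inhibition of human MKN1 cells, read out by a cell viability measurement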
Description: SANGER: Inhibition of human MKN1 cell growth in a cell viability assay.

KYSE-70 cell line = system: KYSE-70 cell line;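 also: cell viability assay read-out, with IC50 expressing suppression of KYSE-70 cell growth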
Description: SANGER: Inhibition of human KYSE-70 cell growth in a cell viability assay.

DBTRG-05MG = system: DBTRG-05MG;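 also: cell viability assay measuring growth inhibition of human DBTRG-05MG cells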
Description: SANGER: Inhibition of human DBTRG-05MG cell growth in a cell viability assay.

YH-13 = system: YH-13;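 also: cell viability readout of growth suppression in the human YH-13 cell line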
Description: SANGER: Inhibition of human YH-13 cell growth in a cell viability assay.

OE19 = system: OE19;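 also: growth inhibition of OE19 cells, measured through a cell viability read-out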
Description: SANGER: Inhibition of human OE19 cell growth in a cell viability assay.

NCI-H28 = system: NCI-H28;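 also: growth inhibition of human NCI-H28 cells, read out as cell viability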
Description: SANGER: Inhibition of human NCI-H28 cell growth in a cell viability assay.

MIA PaCa-2 = system: MIA PaCa-2;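 also: growth inhibition of MIA PaCa-2 cells, read out with a cell viability assay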
Description: SANGER: Inhibition of human MIA-PaCa-2 cell growth in a cell viability assay.

RPMI-2650 = system: RPMI-2650
Description: SANGER: Inhibition of human RPMI-2650 cell growth in a cell viability assay.

C32 = system: C32;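 also: cell viability assay, with IC50 reflecting inhibition of C32 cell growth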
Description: SANGER: Inhibition of human C32 cell growth in a cell viability assay.

D-566MG = system: D-566MG
SBC-5 = system: SBC-5;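 also: cell viability assay read-out, IC50 is the concentration that inhibits growth of the cells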
Description: SANGER: Inhibition of human SBC-5 cell growth in a cell viability assay.

CAL-51 = system: CAL-51;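 also: human CAL-51 cell line, growth inhibition read out via a cell viability assay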
Description: SANGER: Inhibition of human CAL-51 cell growth in a cell viability assay.

DK-MG = system: DK-MG;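 also: growth inhibition of DK-MG cells, read out with a cell viability assay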
Description: SANGER: Inhibition of human DK-MG cell growth in a cell viability assay.

M14 = system: M14;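 also: growth inhibition of M14 cells, read out with a cell viability assay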
Description: SANGER: Inhibition of human M14 cell growth in a cell viability assay.

EFO-21 = system: EFO-21;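 also: growth inhibition of EFO-21 cells measured with a viability assay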
Description: SANGER: Inhibition of human EFO-21 cell growth in a cell viability assay.

ME-180 = system: ME-180;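 also: cell viability assay measuring growth inhibition of ME-180 cells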
Description: SANGER: Inhibition of human ME-180 cell growth in a cell viability assay.

COLO-679 = system: COLO-679
Description: SANGER: Inhibition of human COLO-679 cell growth in a cell viability assay.

PC-14 = system: PC-14;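 also: cell viability assay measuring inhibition of PC-14 cell growth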
Description: SANGER: Inhibition of human PC-14 cell growth in a cell viability assay.

C3A = system: C3A;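 also: growth inhibition of C3A human cells, quantified with a cell viability readout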
Description: SANGER: Inhibition of human C3A cell growth in a cell viability assay.

BHY = system: BHY;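 also: cell growth inhibition read out by a viability assay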
Description: SANGER: Inhibition of human BHY cell growth in a cell viability assay.

Calu-3 = system: Calu-3;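 also: growth inhibition of human Calu-3 cells, determined with a cell viability assay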
Description: SANGER: Inhibition of human Calu-3 cell growth in a cell viability assay.

VMRC-RCZ = system: VMRC-RCZ;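 also: growth inhibition measured with a cell viability assay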
Description: SANGER: Inhibition of human VMRC-RCZ cell growth in a cell viability assay.

COLO-680N = system: COLO-680N;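 also: cell viability assay used to measure inhibition of COLO-680N cell growth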
Description: SANGER: Inhibition of human COLO-680N cell growth in a cell viability assay.

CAL-72 = system: CAL-72;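 also: cell viability assay measuring inhibition of proliferation in the CAL-72 cell line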
Description: SANGER: Inhibition of human CAL-72 cell growth in a cell viability assay.

CFPAC-1 = system: CFPAC-1;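 also: cell viability readout used to gauge suppression of CFPAC-1 cell proliferation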
Description: SANGER: Inhibition of human CFPAC-1 cell growth in a cell viability assay.

OVCAR-3 = system: OVCAR-3;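 also: growth inhibition of human OVCAR-3 cells, determined by a cell viability assay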
Description: SANGER: Inhibition of human OVCAR-3 cell growth in a cell viability assay.

NCI-H2291 = system: NCI-H2291
Description: SANGER: Inhibition of human NCI-H2291 cell growth in a cell viability assay.

NCI-H1437 = system: NCI-H1437;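 also: growth inhibition of human NCI-H1437 cells, read out by a cell viability assay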
Description: SANGER: Inhibition of human NCI-H1437 cell growth in a cell viability assay.

CISPLATIN
IC50 (ChaGo-K-1; chago-k-1): 15.2 µM
IC50 (DMS-273; dms-273): 9.7 µM
IC50 (HCC1569; hcc1569): 455 µM
IC50 (NCI-H630; nci-h630): 514 µM
IC50 (CWR22R; cwr22r): 25.3 µM
IC50 (Panc1005; panc1005): 8.61 µM
IC50 (SW1417; sw1417): 194 µM
IC50 (MDA-MB-175-VII; mda-mb-175-vii): 69.7 µM
IC50 (NCI-H520; nci-h520): 72.8 µM
IC50 (HCT-116; hct-116): 8.68 µM
IC50 (MKN-1; mkn-1): 42.1 µM
IC50 (KYSE-70 cell line; kyse-70): 48.7 µM
IC50 (DBTRG-05MG; dbtrg-05mg): 15.9 µM
IC50 (YH-13; yh-13): 12.1 µM
IC50 (OE19; oe19): 709 µM
IC50 (NCI-H28; nci-h28): 117 µM
IC50 (MIA PaCa-2; mia paca-2): 5.35 µM
IC50 (RPMI-2650; rpmi-2650): 75.5 µM
IC50 (C32; c32): 6.38 µM
IC50 (D-566MG; d-566mg): 3.48 µM
IC50 (SBC-5; sbc-5): 70.1 µM
IC50 (CAL-51; cal-51): 16.4 µM
IC50 (DK-MG; dk-mg): 137 µM
IC50 (M14; m14): 2.79 µM
IC50 (EFO-21; efo-21): 33.7 µM
IC50 (ME-180; me-180): 55.2 µM
IC50 (COLO-679; colo-679): 765 µM
IC50 (PC-14; pc-14): 5.72 µM
IC50 (C3A; c3a): 407 µM
IC50 (BHY; bhy): 49.3 µM
IC50 (Calu-3; calu-3): 582 µM
IC50 (VMRC-RCZ; vmrc-rcz): 298 µM
IC50 (COLO-680N; colo-680n): 23.6 µM
IC50 (CAL-72; cal-72): 23.4 µM
IC50 (CFPAC-1; cfpac-1): 35.2 µM
IC50 (OVCAR-3; ovcar-3): 696 µM
IC50 (NCI-H2291; nci-h2291): 458 µM
IC50 (NCI-H1437; nci-h1437): 84.4 µM

Cc1cn(-c2cc(NC(=O)c3ccc(C)c(Nc4nccc(-c5cccnc5)n4)c3)cc(C(F)(F)F)c2)cn1 [NILOTINIB]
IC50 (ChaGo-K-1; Homo sapiens, ChaGo-K-1): > 2 µM
IC50 (DMS-273; Homo sapiens, DMS-273): > 2 µM
IC50 (HCC1569; Homo sapiens, HCC1569): > 2 µM
IC50 (NCI-H630; Homo sapiens, NCI-H630): > 2 µM
IC50 (CWR22R; Homo sapiens, 22Rv1): > 2 µM
IC50 (Panc1005; Homo sapiens, Panc1005): > 2 µM
IC50 (SW1417; Homo sapiens, SW1417): > 2 µM
IC50 (MDA-MB-175-VII; Homo sapiens, MDA-MB-175-VII): > 2 µM
IC50 (NCI-H520; Homo sapiens, NCI-H520): > 2 µM
IC50 (HCT-116; Homo sapiens, HCT-116): > 2 µM
IC50 (MKN-1; Homo sapiens, MKN-1): > 2 µM
IC50 (KYSE-70 cell line; Homo sapiens, KYSE-70): > 2 µM
IC50 (DBTRG-05MG; Homo sapiens, DBTRG-05MG): > 2 µM
IC50 (YH-13; Homo sapiens, YH-13): > 2 µM
IC50 (OE19; Homo sapiens, OE19): > 2 µM
IC50 (NCI-H28; Homo sapiens, NCI-H28): > 2 µM
IC50 (MIA PaCa-2; Homo sapiens, MIA PaCa-2): > 2 µM
IC50 (RPMI-2650; Homo sapiens, RPMI-2650): > 2 µM
IC50 (C32; Homo sapiens, C32): > 2 µM
IC50 (D-566MG; Homo sapiens, D-566MG): > 2 µM
IC50 (SBC-5; Homo sapiens, SBC-5): > 2 µM
IC50 (CAL-51; Homo sapiens, CAL-51): > 2 µM
IC50 (DK-MG; Homo sapiens, DK-MG): > 2 µM
IC50 (M14; Homo sapiens, M14): > 2 µM
IC50 (EFO-21; Homo sapiens, EFO-21): > 2 µM
IC50 (ME-180; Homo sapiens, ME-180): > 2 µM
IC50 (COLO-679; Homo sapiens, COLO-679): > 2 µM
IC50 (PC-14; Homo sapiens, PC-14): > 2 µM
IC50 (C3A; Homo sapiens, C3A): > 2 µM
IC50 (BHY; Homo sapiens, BHY): > 2 µM
IC50 (Calu-3; Homo sapiens, Calu-3): > 2 µM
IC50 (VMRC-RCZ; Homo sapiens, VMRC-RCZ): > 2 µM
IC50 (COLO-680N; Homo sapiens, COLO-680N): > 2 µM
IC50 (CAL-72; Homo sapiens, CAL-72): > 2 µM
IC50 (CFPAC-1; Homo sapiens, CFPAC-1): > 2 µM
IC50 (OVCAR-3; Homo sapiens, OVCAR-3): > 2 µM
IC50 (NCI-H2291; Homo sapiens, NCI-H2291): > 2 µM
IC50 (NCI-H1437; Homo sapiens, NCI-H1437): > 2 µM

CCN(CC)CCCCNc1ncc2cc(-c3cc(OC)cc(OC)c3)c(NC(=O)NC(C)(C)C)nc2n1 [PD-173074]
IC50 (ChaGo-K-1; Homo sapiens, ChaGo-K-1): > 2 µM
IC50 (DMS-273; Homo sapiens, DMS-273): > 2 µM
IC50 (HCC1569; Homo sapiens, HCC1569): > 2 µM
IC50 (NCI-H630; Homo sapiens, NCI-H630): > 2 µM
IC50 (CWR22R; Homo sapiens, 22Rv1): > 2 µM
IC50 (Panc1005; Homo sapiens, Panc1005): > 2 µM
IC50 (SW1417; Homo sapiens, SW1417): > 2 µM
IC50 (MDA-MB-175-VII; Homo sapiens, MDA-MB-175-VII): > 2 µM
IC50 (NCI-H520; Homo sapiens, NCI-H520): > 2 µM
IC50 (HCT-116; Homo sapiens, HCT-116): > 2 µM
IC50 (MKN-1; Homo sapiens, MKN-1): > 2 µM
IC50 (KYSE-70 cell line; Homo sapiens, KYSE-70): > 2 µM
IC50 (DBTRG-05MG; Homo sapiens, DBTRG-05MG): > 2 µM
IC50 (YH-13; Homo sapiens, YH-13): > 2 µM
IC50 (OE19; Homo sapiens, OE19): > 2 µM
IC50 (NCI-H28; Homo sapiens, NCI-H28): > 2 µM
IC50 (MIA PaCa-2; Homo sapiens, MIA PaCa-2): > 2 µM
IC50 (RPMI-2650; Homo sapiens, RPMI-2650): > 2 µM
IC50 (C32; Homo sapiens, C32): > 2 µM
IC50 (D-566MG; Homo sapiens, D-566MG): > 2 µM
IC50 (SBC-5; Homo sapiens, SBC-5): > 2 µM
IC50 (CAL-51; Homo sapiens, CAL-51): > 2 µM
IC50 (DK-MG; Homo sapiens, DK-MG): > 2 µM
IC50 (M14; Homo sapiens, M14): > 2 µM
IC50 (EFO-21; Homo sapiens, EFO-21): > 2 µM
IC50 (ME-180; Homo sapiens, ME-180): > 2 µM
IC50 (COLO-679; Homo sapiens, COLO-679): > 2 µM
IC50 (PC-14; Homo sapiens, PC-14): > 2 µM
IC50 (C3A; Homo sapiens, C3A): > 2 µM
IC50 (BHY; Homo sapiens, BHY): > 2 µM
IC50 (Calu-3; Homo sapiens, Calu-3): > 2 µM
IC50 (VMRC-RCZ; Homo sapiens, VMRC-RCZ): > 2 µM
IC50 (COLO-680N; Homo sapiens, COLO-680N): > 2 µM
IC50 (CAL-72; Homo sapiens, CAL-72): > 2 µM
IC50 (CFPAC-1; Homo sapiens, CFPAC-1): > 2 µM
IC50 (OVCAR-3; Homo sapiens, OVCAR-3): > 2 µM
IC50 (NCI-H2291; Homo sapiens, NCI-H2291): > 2 µM
IC50 (NCI-H1437; Homo sapiens, NCI-H1437): > 2 µM
